Assay results: patent US20080195024A1, “Treating Disorders Associated with Inflammation” (priority 2005, published 2008)

Key:
[1] = tested on: digestive enzymes in luminal contents; test: Protease activity of wall homogenates digested with filtered luminal fluid with or without protease inhibitors; format: biochemical, rat; details: filtered luminal fluid plus inhibitor incubated with wall homogenates 3 hours at 37° C.; final 1 mM PMSF, 1.25 mg/ml (2.31 mM) ANGD
Description: (§1) To determine if enzyme inhibition could prevent the generation of cytotoxic mediators from luminal contents, luminal fluids were pre-filtered through three glass fiber filters in series, a procedure that reduces cytotoxic activity, allowing the experiments to be focused solely on new cytotoxic mediator formation. […] The precipitate was separated following the digestion period and the supernatant collected. All samples were then aliquotted and frozen for later measurements of protease activity and neutrophil cytotoxicity.

human neutrophils = test: Flow cytometric analysis of neutrophil cytotoxicity (PI cell death, forward scatter); format: cell-based; details: for increase in forward scatter: pancreatic proteases alone; for cytotoxicity to neutrophils: pure proteases at the tested concentrations
Description: Cytotoxicity measurement—flow cytometric analysis of neutrophil cytotoxicity: For measurements of cell death and forward scatter (a measure of cell “size”) by flow cytometry, 100 μl of sample were mixed with 100 μl of cells (10^6 cells/ml final) and after selected periods of incubation, a life/death indicator (200 μl of 2 μM propidium iodide, PI) was added. Within seconds of PI addition, the sample was tested in a flow cytometer (Beckton-Dickson FACScan; Franklin Lakes N.J.).
Flow cytometric analysis of neutrophils was carried out by plotting forward scatter (FSC) on the ordinate and FL-2 (PI fluorescence) on the abscissa. […] Two regions on the scatter plot were gated. Region 1 (R1) was for live cells, and was constructed to monitor an increase in cell size that results from bleb formation and also to observe the small uptake of PI that occur may prior to total membrane failure. […] Ten thousand cells were evaluated per sample. Cell death was reported as the percentage of total cells located in R2, i.e., Death=100%*(# in R2)/(# in R1+# in R2).

[2] = Solubility of ANGD in luminal fluid; format: physicochemical; details: with or without glucose; white precipitate formed
Description: as §1

casein = test: Protease activity measurement (Enzcheck casein kit) of proteases, homogenates and luminal fluids; format: biochemical; details: mixed with equal volume of PBS; fluorescence after 90 minutes; mean±SD, N=6
Description: In vitro studies of intestinal wall homogenate digested with proteases—enzymatic digestion of wall homogenates: Wall homogenates were rapidly thawed at 37° C. and mixed with equal volumes of PBS, TPCK-treated trypsin, TLCK-treated chymotrypsin, or elastase. Controls of the proteases alone also were created by mixing them with equal volumes of PBS. Since lower grades of trypsin are often contaminated with the activity of chymotrypsin and vice versa, trypsin pretreated with TPCK (a specific chymotrypsin inhibitor) and chymotrypsin pretreated with TLCK (a trypsin inhibitor) were used to reduce any effects of cross contamination. Before mixing with wall homogenate, the enzymes were reconstituted in PBS at the following concentrations: 1 mg/ml for TPCK-treated trypsin, 1 mg/ml for TLCK-treated chymotrypsin, and 0.5 mg/ml for elastase.
The groups were treated as follows: the luminal fluids from 5 animals were incubated separately (37° C., 3 hours) and aliquots of each sample were collected. One aliquot was filtered through 4 glass fiber pre-filters in series. The unfiltered and filtered aliquots were mixed with equal volumes of PBS (to generate the Lumen and Filtered Lumen groups, respectively) or with wall homogenate from the same animal (to generate the Wall+Lumen and Wall+Filtered Lumen groups, respectively). The Wall group was prepared by mixing wall homogenates with equal volumes of PBS. All samples were incubated at 37° C. for 3 additional hours, aliquotted, and frozen (−70° C.) for later evaluation of neutrophil cytotoxicity and protease activity.

[3] = wall homogenates digested with filtered luminal fluid with inhibitor, exposure 20, 30 or 40 minutes

Question: Which “protease activity inhibited in the digested homogenates” value [1] does the source give for `CS(=O)(=O)O.CS(=O)(=O)O.N=C(N)Nc1ccc(C(=O)Oc2ccc3cc(C(=N)N)ccc3c2)cc1` [ANGD, 6-amidino-2-naphthyl p-guanidinobenzoate dimethanesulfonate] here?
Answer: less effective

Question: What about the neutrophil cell death (human neutrophils; [3]) of the same compound?
Answer: significantly decrease the cell death compared to controls

Question: And the neutrophil forward scatter (human neutrophils; [3])?
Answer: prevented the large increase in forward scatter

Question: And the “solubility in the luminal fluid” value [2]?
Answer: not completely soluble

Question: With `O=S(=O)(F)Cc1ccccc1` [PMSF, phenylmethylsulfonyl fluoride] as the compound, how does the “protease activity inhibited in the digested homogenates” value [1] read?
Answer: approximately half

Question: And the “cytotoxicity compared to samples without PMSF” value (human neutrophils; PMSF added after digestion of wall homogenate by chymotrypsin, not statistically significant)?
Answer: slightly increased cytotoxicity

Question: And the neutrophil cell death (human neutrophils; PMSF added prior to digestion of wall homogenate by chymotrypsin)?
Answer: no cell death

Question: What about the neutrophil cell death (human neutrophils; [3]) of the same compound?
Answer: Neither PMSF nor ANGD alone entirely prevented cell death

Question: What does the source list for chymotrypsin?
Answer: protease activity (casein): 2371±230 RFU; increase in forward scatter (human neutrophils): significantly elevated at 90 minutes; cytotoxicity to neutrophils (human neutrophils): not cytotoxic

Question: For “elastase: pancreatic elastase from Worthington Biochemicals, 0.5 mg/ml in PBS”, which protease activity (casein) is on record?
Answer: 2389±300 RFU

Question: And the “increase in forward scatter” value (human neutrophils)?
Answer: greatest increase

Question: What about the cytotoxicity to neutrophils (human neutrophils) of the same compound?
Answer: not cytotoxic

Question: Which protease activity (casein) does the source give for trypsin here?
Answer: 300±33 RFU

Question: What about the “increase in forward scatter” value (human neutrophils) of the same compound?
Answer: no significant effect

Question: What about the cytotoxicity to neutrophils (human neutrophils) of the same compound?
Answer: not cytotoxic
